The experiment addresses T1, cyclic AMP phosphodiesterase (Oryctolagus cuniculus, UniProt G1ST54).
T1 construct: the supernatant was collected to use it as a crude enzyme solution; from tissue; host or cells: rabbit platelets (from platelet-rich plasma), 100,000 xg supernatant, DEAE-cellulose fraction
T1 sequence (G1ST54 1-1128): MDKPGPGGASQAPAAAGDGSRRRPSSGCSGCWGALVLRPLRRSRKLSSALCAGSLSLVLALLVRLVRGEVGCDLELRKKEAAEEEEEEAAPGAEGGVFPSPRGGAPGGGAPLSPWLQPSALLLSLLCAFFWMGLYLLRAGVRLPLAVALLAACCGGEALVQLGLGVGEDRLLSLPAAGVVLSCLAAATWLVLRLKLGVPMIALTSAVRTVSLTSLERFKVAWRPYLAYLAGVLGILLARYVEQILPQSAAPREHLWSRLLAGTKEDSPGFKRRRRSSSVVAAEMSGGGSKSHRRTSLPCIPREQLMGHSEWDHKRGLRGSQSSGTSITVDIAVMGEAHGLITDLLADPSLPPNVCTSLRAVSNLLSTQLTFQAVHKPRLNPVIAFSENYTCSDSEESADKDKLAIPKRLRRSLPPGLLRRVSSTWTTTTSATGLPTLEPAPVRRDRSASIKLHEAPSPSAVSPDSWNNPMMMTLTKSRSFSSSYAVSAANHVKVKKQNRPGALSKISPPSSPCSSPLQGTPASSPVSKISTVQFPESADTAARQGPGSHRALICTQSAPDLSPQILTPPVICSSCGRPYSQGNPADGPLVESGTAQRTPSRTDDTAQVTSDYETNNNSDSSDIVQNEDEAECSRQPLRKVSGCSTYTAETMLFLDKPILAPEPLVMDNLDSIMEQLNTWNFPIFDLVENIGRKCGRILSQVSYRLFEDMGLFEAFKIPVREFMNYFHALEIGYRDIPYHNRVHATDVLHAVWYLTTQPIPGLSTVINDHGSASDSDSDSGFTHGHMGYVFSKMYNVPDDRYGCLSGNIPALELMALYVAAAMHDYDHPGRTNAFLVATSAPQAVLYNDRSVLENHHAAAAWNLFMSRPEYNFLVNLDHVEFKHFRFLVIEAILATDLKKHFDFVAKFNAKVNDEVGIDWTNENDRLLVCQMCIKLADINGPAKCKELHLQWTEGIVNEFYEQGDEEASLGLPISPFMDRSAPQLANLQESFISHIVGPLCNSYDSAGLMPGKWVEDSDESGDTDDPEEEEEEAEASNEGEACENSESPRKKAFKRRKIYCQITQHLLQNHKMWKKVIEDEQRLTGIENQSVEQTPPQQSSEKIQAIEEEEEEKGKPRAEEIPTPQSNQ
Put plainly: Obstructive action against cyclic AMP phosphodiesterase. Format: biochemical, rabbit. How it is done:
The obstructive action against cyclic AMP phosphodiesterase was measured according to the activity measuring method described in "Biochimica et Biophysica Acta", Vol. 429, pp. 485-497 (1976) and "Biochemical Medicine", Vol. 10, pp. 301-311 (1974).
That is, for determining the obstructive activity against cyclic AMP phosphodiesterase, 10 ml of a solution obtained by adding 1 mmol of MgCl2 into 50 mmol of tris-hydrochloric acid buffer with pH 7.4 was added to the platelets obtained by further centrifuging the abovesaid rabbit PRP at 3,000 r.p.m. for 10 minutes, and the suspended platelets were ground by a Teflon potter type homogenizer. This was followed by two times of freezing and thawing treatment and 300-second fracturing with 200 watt supersonic waves. After additional 60-minute centrifugation with 100,000 xg, the supernatant was collected to use it as a crude enzyme solution.
10 Milliliters of this crude buffer solution was added to a 1.5×20 cm DEAE-cellulose column which has previously been buffered with 50 mmol of tris-acetate buffer (pH 6.0), followed by washing and elution with 30 ml of 50 mmol tris-acetate buffer, and this buffer solution was subjected to linear gradient elution with 0 to 0.5 moles of sodium acetate-tris-acetatebuffer. The flow rate was 0.5 ml/min, and 5 ml of each fraction was batched out. […] This fraction was used as cyclic AMP phosphodiesterase.
0.1 Milliliter of an aqueous solution of each test compound of a specified concentration was mixed with 40 mmol of tris-hydrochloric acid buffer (pH 8.0, containing 50 μg of cow serum albumin and 4 mmol of MgCl2) containing predetermined 1.0 μmol of cyclic AMP (tritium cyclic AMP), and 0.2 ml of this mixed solution was used as substrate solution.
0.2 Milliliter of the above-prepared cyclic AMP phosphodiesterase of a predetermined concentration was added to said substrate solution and the mixture was reaction at 30° C. for 20 minutes, producing tritium 5'-AMP from the tritium cyclic AMP.
The reaction system was then immersed in boiling water for 2 minutes to stop the reaction, and then this reaction solution was cooled in ice water and, for converting the produced tritium 5'-AMP into tritium adenosine, the solution was added with 0.05 ml (1 mg/ml) of snake poison as 5'-nucleotidase and reacted at 30° C. for 10 minutes. The whole amount of this reaction solution was then added to a cation exchange resin (AG 500 W×4, 200-400 meshes, manufactured by Bio-Rad Co., column size: 0.5×1.5 cm), and the produced tritium anodesine alone was allowed to combine, washed with 6 ml of distilled water and eluted with 1.5 ml of 3 N-ammonia water. The whole quantity of the elutant was added with 10 ml of a triton-toluene type scintillator and the produced tritium adenosine was measured by a liquid scintillation counter to determine the phosphodiesterase activity.
In this way, the phosphodiesterase activation value (Vs) of the test compounds of the respective concentrations was determined, and the phosphodiesterase obstruction rate (%) was determined from said activation value (Vs) and control value (Vc) (obtained from water not containing any test compound) from the following formula: [formula]

Where [1] appears, read: pH 8, read-out: phosphodiesterase obstruction rate.

We go through two compounds from patent publication US4298739A, “Novel carbostyril derivatives” (priority 1977, dated 1981).

Read-outs that look alike come from different tables or passages of the source.

In the case of `CC(=O)OC1CCC(N(C)C(=O)CCCOc2ccc3[nH]c(=O)ccc3c2)CC1` (stereo not shown) [compound 3, 6-{3-[N-Methyl-N-(4-acetyloxycyclohexyl)aminocarbonyl]propoxy}carbostyril], the inhibition at 10 µM (10^-5 mole, 1.0 μmol cyclic AMP, pH 8.0, 30° C., read-out: phosphodiesterase obstruction rate) was 98.5%. Under “10^-6 mole, 1.0 μmol cyclic AMP, pH 8.0, 30° C., read-out: phosphodiesterase obstruction rate”, the inhibition at 1 µM is 95.5%. For the same compound, under “10^-7 mole, 1.0 μmol cyclic AMP, pH 8.0, 30° C., read-out: phosphodiesterase obstruction rate”, the inhibition at 0.1 µM was found to be 88.4%. For the same compound, the inhibition at 0.01 µM (10^-8 mole, 1.0 μmol cyclic AMP, pH 8.0, 30° C., read-out: phosphodiesterase obstruction rate) is 61.1%. For the same compound, the inhibition at 0.001 µM (10^-9 mole, 1.0 μmol cyclic AMP, pH 8.0, 30° C., read-out: phosphodiesterase obstruction rate) amounted to 13.4%.
Turning to `CN(C(=O)CCCOc1ccc2[nH]c(=O)ccc2c1)C1CCCCC1` [compound 16, 6-[3-(N-Methyl-N-cyclohexylaminocarbonyl)propoxy]carbostyril], under setting [1], the inhibition at 0.001 µM was 7.1%, the inhibition at 0.01 µM is 22.3%, the inhibition at 0.1 µM worked out at 79.3% and the inhibition at 1 µM was determined as 87.5%. The inhibition at 10 µM under setting [1] is 80.5%.
